Experimental data: patent publication US20240116856A1 (Young BioPharma, LLC, priority 2020, published 2024)
“And” between values parts separate entries of the source, which are not always exact repeats. Equal values may be shown once. Read-outs that look alike come from different tables or passages of the source.

What was measured:
[1] = molecular target: T1, human TRPV3 (Homo sapiens, UniProt Q8NET8); test: In vitro Ca2+ flux counter-screen in human TRPV3 overexpressing cells; assay type: cell-based
T1 construct: expressed in transfected cells; host or cells: overexpressing cells
T1 sequence (Q8NET8 1-790): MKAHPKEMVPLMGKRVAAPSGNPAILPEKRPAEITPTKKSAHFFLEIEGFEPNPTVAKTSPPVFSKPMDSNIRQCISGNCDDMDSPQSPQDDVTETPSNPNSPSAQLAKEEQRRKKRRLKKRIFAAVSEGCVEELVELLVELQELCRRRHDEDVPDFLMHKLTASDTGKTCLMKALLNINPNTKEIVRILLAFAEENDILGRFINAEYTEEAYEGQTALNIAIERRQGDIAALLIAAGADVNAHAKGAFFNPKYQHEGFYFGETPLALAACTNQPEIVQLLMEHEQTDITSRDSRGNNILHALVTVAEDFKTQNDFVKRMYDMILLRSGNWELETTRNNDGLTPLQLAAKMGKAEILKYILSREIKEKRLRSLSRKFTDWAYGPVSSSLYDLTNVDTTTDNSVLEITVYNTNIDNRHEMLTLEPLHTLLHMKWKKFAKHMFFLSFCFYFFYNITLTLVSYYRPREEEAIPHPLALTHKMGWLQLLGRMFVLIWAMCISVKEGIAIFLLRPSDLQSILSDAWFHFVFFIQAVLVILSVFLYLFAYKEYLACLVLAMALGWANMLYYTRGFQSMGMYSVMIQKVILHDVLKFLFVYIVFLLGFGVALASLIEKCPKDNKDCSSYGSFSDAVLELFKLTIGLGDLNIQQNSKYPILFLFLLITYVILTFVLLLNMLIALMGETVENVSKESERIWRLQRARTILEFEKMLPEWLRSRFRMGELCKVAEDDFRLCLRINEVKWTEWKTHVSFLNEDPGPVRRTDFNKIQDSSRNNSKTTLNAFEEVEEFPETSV

[2] = tested on: MDA-MB-231 cell invasion; test: Cancer cell invasion assay, MDA-MB-231; assay type: cell-based, human; details: 24 h
Procedure: A cancer cell invasion assay was developed based on literature protocols (Methods 2005, 37, 208; EMBO J 2002, 21, 6289; Cellular Signalling 2012, 24, 1276.). Membrane matrix gel (Cat #A1413201, ThermoFisher) was diluted in ice-cold, serum-free RPMI 1640 Medium (Cat #31800022, ThermoFisher) at a concentration of 0.5-0.6 mg/mL. Then it was added to the upper compartment (100 μL per cup) of millicell inserts (Cat #PI8P01250, ThermoFisher) placed in a 24-well plate (Part no. 229123, Celltreat). The plate was incubated at 37° C. for 2 h to allow the liquid gel to solidify. RPMI 1640 Medium supplemented with 10% FBS (300 μL) was added to the well of the plate (lower compartment) as attractant, then DMSO or compounds were added. Human cancer cells (1×10^5 cells in 200 μL of RPMI 1640 Medium) were added to the upper compartment of the insert, then DMSO or compounds were added. After the plate was incubated at 37° C. for 24 h, the cells were fixed on the lower side of the insert membrane with 4% formaldehyde and stained with 1% crystal violet (Part no. IS12146, Innovating Science). The invaded cells on the lower side of the filter were counted under an inverted microscope equipped with either a 4× or a 10× objective (FIG. 11). The cell numbers from 5 random views were averaged and plotted as percentage against the DMSO control (FIG. 12A).

[3] = tested on: MDA-MB-231; test: Human cancer cell growth inhibition assay (ATP assay), MDA-MB-231; assay type: cell-based; details: Homo sapiens, MDA-MB-231, 96 h
[4] = tested on: OVCAR-8; test: Human cancer cell growth inhibition assay (ATP assay), OVCAR-8; assay type: cell-based; details: Homo sapiens, OVCAR-8, 96 h
[5] = molecular target: T2, human TRPA1 (Homo sapiens, UniProt O75762); test: In vitro Ca2+ flux counter-screen in human TRPA1 overexpressing cells; assay type: cell-based
T2 construct: expressed in transfected cells; host or cells: overexpressing cells
T2 sequence (O75762 whole entry): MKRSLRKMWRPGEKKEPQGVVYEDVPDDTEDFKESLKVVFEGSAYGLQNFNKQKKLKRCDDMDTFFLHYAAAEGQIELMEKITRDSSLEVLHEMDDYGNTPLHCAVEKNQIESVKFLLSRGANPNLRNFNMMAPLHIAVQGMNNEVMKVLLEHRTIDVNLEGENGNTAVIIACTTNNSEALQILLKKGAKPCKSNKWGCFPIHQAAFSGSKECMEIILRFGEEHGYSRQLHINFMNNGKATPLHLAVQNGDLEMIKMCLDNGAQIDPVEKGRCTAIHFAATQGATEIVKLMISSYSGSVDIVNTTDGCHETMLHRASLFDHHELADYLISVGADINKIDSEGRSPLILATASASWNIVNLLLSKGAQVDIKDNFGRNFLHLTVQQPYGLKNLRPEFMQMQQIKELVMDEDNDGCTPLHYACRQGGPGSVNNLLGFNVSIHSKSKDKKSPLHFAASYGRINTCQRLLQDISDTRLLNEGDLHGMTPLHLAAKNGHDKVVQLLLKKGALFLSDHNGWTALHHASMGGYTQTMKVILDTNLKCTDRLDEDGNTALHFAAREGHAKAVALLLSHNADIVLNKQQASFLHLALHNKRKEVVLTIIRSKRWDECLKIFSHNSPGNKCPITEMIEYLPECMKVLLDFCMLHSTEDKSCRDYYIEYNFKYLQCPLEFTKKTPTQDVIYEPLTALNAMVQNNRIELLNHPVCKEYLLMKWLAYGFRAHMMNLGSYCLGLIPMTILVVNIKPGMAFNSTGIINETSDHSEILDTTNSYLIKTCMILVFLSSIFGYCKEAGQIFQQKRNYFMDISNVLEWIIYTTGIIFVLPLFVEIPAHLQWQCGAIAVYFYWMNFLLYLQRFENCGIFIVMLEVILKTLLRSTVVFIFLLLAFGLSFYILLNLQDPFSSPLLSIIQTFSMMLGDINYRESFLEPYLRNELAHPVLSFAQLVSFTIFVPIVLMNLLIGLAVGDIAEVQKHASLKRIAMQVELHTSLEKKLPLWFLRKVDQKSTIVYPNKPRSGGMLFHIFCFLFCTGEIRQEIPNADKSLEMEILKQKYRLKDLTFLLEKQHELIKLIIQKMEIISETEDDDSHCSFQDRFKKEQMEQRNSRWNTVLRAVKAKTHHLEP

[6] = tested on: NCI-H460; test: Human cancer cell growth inhibition assay (ATP assay), NCI-H460; assay type: cell-based; details: Homo sapiens, NCI-H460, 96 h
[7] = molecular target: T3, human TRPV1 (Homo sapiens, UniProt Q8NER1); test: In vitro Ca2+ flux assay in human TRPV1 transfected HEK 293 cells; assay type: cell-based; details: Means±SEM from three independent experiments
T3 construct: DYK (FLAG) tag from vector pcDNA3.1+/C-(K)DYK (C); host or cells: FreeStyle 293-F cells (HEK 293), transient transfection
T3 sequence (Q8NER1 whole entry): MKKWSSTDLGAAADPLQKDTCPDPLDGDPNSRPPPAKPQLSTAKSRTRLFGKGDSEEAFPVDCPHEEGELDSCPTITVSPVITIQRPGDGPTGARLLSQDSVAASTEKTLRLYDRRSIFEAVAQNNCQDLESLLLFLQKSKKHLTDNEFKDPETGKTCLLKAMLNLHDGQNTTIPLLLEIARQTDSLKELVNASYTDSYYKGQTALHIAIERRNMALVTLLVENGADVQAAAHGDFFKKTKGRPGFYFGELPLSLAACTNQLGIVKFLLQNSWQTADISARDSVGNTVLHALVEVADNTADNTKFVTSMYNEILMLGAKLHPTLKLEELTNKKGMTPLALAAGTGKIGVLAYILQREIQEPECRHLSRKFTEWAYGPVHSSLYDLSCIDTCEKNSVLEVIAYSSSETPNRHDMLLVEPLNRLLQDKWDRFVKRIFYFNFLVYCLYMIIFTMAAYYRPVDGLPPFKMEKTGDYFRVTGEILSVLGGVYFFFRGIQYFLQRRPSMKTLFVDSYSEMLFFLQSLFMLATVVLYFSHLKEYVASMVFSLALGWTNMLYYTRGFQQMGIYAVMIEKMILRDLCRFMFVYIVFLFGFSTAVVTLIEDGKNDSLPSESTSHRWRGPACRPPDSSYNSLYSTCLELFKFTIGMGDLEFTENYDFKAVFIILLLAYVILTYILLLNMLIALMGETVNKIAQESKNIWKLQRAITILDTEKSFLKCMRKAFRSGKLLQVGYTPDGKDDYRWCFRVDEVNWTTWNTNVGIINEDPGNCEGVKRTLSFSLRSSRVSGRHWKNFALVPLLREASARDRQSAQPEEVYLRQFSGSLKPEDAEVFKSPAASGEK

[8] = tested on: Src protein activation in MDA-MB-231 cells; test: Cancer cell immunocytochemistry assay, Phospho-Src (Y416), MDA-MB-231; assay type: cell-based, human; details: at about 40% of IC50 concentration from cell growth inhibition assay, 4 h
Procedure: Human cancer cells (15,000 cells/well) in 96 well half area microplate (Cat #3882, Corning) were incubated overnight at 37° C., then compounds or DMSO control were added to the cell culture and incubated at 37° C. for 1-6 h. The cells were sequentially fixed with 4% formalin, permeabilized with 0.5% Triton X-100, blocked with 5% BSA in PBS, incubated with Human Phospho-Src (Y416) Antibody (Cat #MAB2685, R&D Systems) at rt for 2 h, incubated with the secondary antibody Goat Ant-Rabbit IgG H&L (Alexa Fluor 488) (Cat #ab150077, abeam) for 45 min, and incubated with DAPI (Cat #D9542, Sigma-Aldrich) for 5 min. Finally, the cells were washed and covered with PBS. The cell images were visualized on an inverted fluorescence microscope (Leica DMIL Fluorescent Inverted Microscope with Digital Camera, Leica Microsystems). Pictures were taken [FIGS. 14A-C. Green: Human Phospho-Src (Y416), the activated form of the Src protein; Blue: DAPI (stain nucleus of cell)]. The fluorescence intensity values from 5 random cells were averaged, subtracted by the background value (area between cells) and the blank value [the blank control without the Human Phospho-Src (Y416) Antibody], then plotted as percentage against the DMSO control to indicate the effects of compound treatment on the cellular Src kinase phosphorylation levels in the cancer cells (FIGS. 15A-D).

[9] = counter-screen, read-out: TRPV3 EC50
[10] = 4 days, Means±SEM from three independent experiments, read-out: MDA-MB-231, IC50
[11] = 4 days, Means±SEM from three independent experiments, read-out: OVCAR-8, IC50
[12] = counter-screen, read-out: TRPA1 EC50
[13] = 4 days, Means±SEM from three independent experiments, read-out: NCl-H460, IC50

SMILES	EC50 [1, 9] [µM]	inhibition of MDA-MB-231 cell invasion [2]	IC50 [3, 10] [µM]	IC50 [4, 11] [µM]	EC50 [5, 12] [µM]	IC50 [6, 13] [µM]	EC50 ([7]; read-out: TRPV1 EC50)	IC50 ([3]; read-out: MDA-MB-231, IC50, μM) [µM]	IC50 ([4]; read-out: OVCAR-8, IC50, μM) [µM]	IC50 ([6]; read-out: NCl-H460, IC50, μM) [µM]	cellular Src kinase phosphorylation levels [8]	EC50 [1] [µM]	EC50 ([7]; TRPV1 EC50 (μM)) [µM]	EC50 [5] [µM]
COc1cc(CC2=NCC(c3ccccc3)O2)ccc1O (stereo not shown) [YB-3]	> 10	dose-dependently inhibited	430 ± 90	500 ± 120	> 10	320 ± 86								
COc1cc(CC2=NCC(c3ccc(C(F)(F)F)cc3)O2)ccc1O (stereo not shown) [YB-4]	> 10	dose-dependently inhibited	469 ± 130	300 ± 60	> 10	270 ± 45								
COc1cc(CC2=NCC(c3ccc(-c4ccccc4)cc3)O2)ccc1O (stereo not shown) [YB-5]	> 10	dose-dependently inhibited	542 ± 101	150 ± 42	> 10	210 ± 48								
COc1cc(CNC(=O)CCCC/C=C/C(C)C)ccc1NS(C)(=O)=O [YB-6]	> 10	dose-dependently inhibited	867 ± 72	400 ± 51	> 10	400 ± 46								
COc1cc(CNC(=O)CCCC/C=C/C(C)C)ccc1N(S(C)(=O)=O)S(C)(=O)=O [YB-7]	> 10	dose-dependently inhibited	386 ± 107	310 ± 45	> 10	200 ± 49								
CNc1ccc(CNC(=O)CCCC/C=C/C(C)C)cc1OC [YB-8]	> 10	dose-dependently inhibited	311 ± 31	500 ± 81	> 10	250 ± 23								
COc1cc(CC(=O)N/C=C/c2ccc(Cl)cc2)ccc1O [YB-10]	> 10	dose-dependently inhibited	115 ± 28	34	> 10	73 ± 18	< 0.1 µM and 0.012 to 0.048 µM							
COc1cc(CC(=O)N/C=C/c2ccc(-c3ccccc3)cc2)ccc1O [YB-12]	> 10	dose-dependently inhibited	136 ± 29	129 ± 20	> 10	61 ± 21								
COCCOCCOCCC(=O)Nc1ccc(CNC(=O)CCCC/C=C/C(C)C)cc1OC [YB-13]	> 10	dose-dependently inhibited	107 ± 7.5	200 ± 16	> 10	100 ± 11								
COc1ccc(/C=C/NC(=O)Cc2ccc(O)c(OC)c2)cc1 [YB-14]	> 10		300 ± 46	500 ± 57	> 10	> 300								
COc1cc(CC(=O)N/C=C/c2cccc(C(F)(F)F)c2)ccc1O [YB-15]	> 10		250 ± 38	101 ± 17	> 10	> 300	< 0.1 µM and 0.012 to 0.048 µM							
COc1cc(CC(=O)N/C=C/c2ccc(C(F)(F)F)cc2)ccc1N [YB-17]	> 10				> 10		0.34 to 1.1 µM	140 ± 22	161 ± 26	139 ± 19				
COc1cc(CC(=O)N/C=C/c2ccc(Cl)cc2)ccc1N [YB-18]	> 10		69 ± 16	200 ± 21	> 10	133 ± 18	0.34 to 1.1 µM							
COc1cc(CC(=O)N/C=C/c2ccc(-c3ccccc3)cc2)ccc1N [YB-19]	> 10		103 ± 18	100 ± 15	> 10	117 ± 16								
COc1ccc(/C=C/NC(=O)Cc2ccc(N)c(OC)c2)cc1 [YB-20]	> 10		86 ± 14	283 ± 38	> 10	279 ± 42								
COc1cc(CC(=O)N/C=C/c2cccc(C(F)(F)F)c2)ccc1N [YB-21]	> 10	dose-dependently inhibited	101 ± 20	65 ± 14	> 10	103 ± 13	0.34 to 1.1 µM							
COc1cc(CC(=O)N/C=C/c2cc(C(F)(F)F)cc(C(F)(F)F)c2)ccc1O [YB-22]	> 10	dose-dependently inhibited	74	58	> 10	84 ± 12					significantly reduced the cellular Src kinase phosphorylation levels			
COc1cc(CC(=O)N/C=C/c2ccc(C#N)cc2)ccc1O [YB-23]	> 10	dose-dependently inhibited	90 ± 12	73	> 10	88					significantly reduced the cellular Src kinase phosphorylation levels			
COc1cc(CC(=O)N/C=C/c2ccc(C(F)(F)F)cc2)ccc1NC(=O)CCCC/C=C/C(C)C [YB-29]	> 10				> 10		> 10 µM							
COc1cc(CC(=O)N/C=C/c2ccc(C(F)(F)F)cc2)ccc1NC(C)=O [YB-30]	> 10				> 10		8.8 ± 0.9 µM							
COc1cc(CC(=O)N/C=C/c2ccc(C(F)(F)F)cc2)ccc1OC(=O)N1CCCCC1CN(C)C(=O)OC(C)(C)C (stereo not shown) [YB-31]												> 10	> 10	> 10
CNCC1CCCCN1C(=O)Oc1ccc(CC(=O)N/C=C/c2ccc(C(F)(F)F)cc2)cc1OC (stereo not shown) [YB-35]												> 10	0.71 ± 0.14	> 10
